Experimental data taken from US12679877B2, “NPRA agonists, compositions, and uses thereof” (PharmaIn Corporation, priority 2017, dated 2026).
Marks after values point to notes of the source that are not given here. No end group written: not given here. *: point of attachment. CH3(CH2)22CO = C24 acyl (CH3(CH2)22CO-), CCCCCCCCCCCCCCCCCCCCCCCC(=O)*; Docosanoyl = CCCCCCCCCCCCCCCCCCCCCC(=O)*

Experiments:
[1] = Plasma ANP level by ELISA after s.c. ANP in the same study; format: in vivo, Balb/c mice; conditions: ANP 12 mg/Kg s.c., injection at 0 hour and 6 hours; average of all groups with same dose; value (SEM)
Experimental: An investigation was carried out to determine whether prolonged presence of ANP in the blood would have a sustained pharmacodynamic effect, reflected by elevation of cGMP blood concentration, and to determine whether that elevation would be proportional to the level of ANP. The level of blood cGMP relative to ANP was determined. […] This problem had not been documented in literature and there was no reason to solve this previously unknown problem. […] For this study, 4 groups of Balb/c mice (n=3/group; female, 5-6 weeks old; 18-25 g) were used and the cGMP levels at various time points after ANP administration with and without 2nd ANP administration were evaluated. […] Two subsequent s.c. (subcutaneous) administrations of the ANP formulated in a polymeric excipient (to increase in vivo stability) were evaluated. […] The plasma samples were analyzed for cGMP using the cGMP ELISA kit (GE Healthcare Life Sciences, Marlborough, MA) according to manufacturer's protocol. […] The level of ANP associated with cGMP was also measured to further confirm receptor depletion was the result of lack of responsiveness if any. The associated level of ANP was measured using an ELISA assay kit (GE Healthcare Life Sciences, Marlborough, MA) according to manufacturer's protocol. […]

[2] = system: natriuretic peptide receptors (NPRA or NPRB); test: 2-point blood cGMP evaluation (2 and 6 hours) after 15 mg/Kg s.c., cGMP Direct Biotrak EIA; format: in vivo, CD-1 mice; conditions: for In vivo blood cGMP minus baseline, 2 hour (potency) / In vivo blood cGMP minus baseline, 6 hour (receptor depletion): 15 mg/Kg s.c. in mice (n=3), minus baseline 30 pmol/ml (n=12); for In vivo blood cGMP minus baseline, 2 hour (potency): 2 hours after dosing; for In vivo blood cGMP minus baseline, 6 hour (receptor depletion): 6 hours after dosing; for activity / potency compared to ANP, in words (2 hour data in Table 2): 15 mg/Kg s.c. in mice, blood cGMP
Experimental: Various derivatives of ANP were made and screened for increase in vivo potency while limiting the apparent receptor depletion effects (or perhaps can act on another cGMP enhancing receptors) by looking at the level of blood cGMP at specific time points. […] Various derivatives were made and tested in vivo to determine the level of blood cGMP at 2 hours and 6 hours after subcutaneous administration of 15 mg/Kg in mice (which was allometrically equivalent to human dose of 1.5 mg/Kg) with the goal of finding derivatives that were therapeutically useful for increasing blood cGMP.
For 2-point cGMP evaluation of various derivatives, test samples were dissolved in water (Lonza, Wakersville, MD) before being lyophilized. Prior to use, the lyophilized test sample was dissolved in saline then 15 mg/Kg was injected subcutaneously into female CD-1 mice 6-8 weeks (n=3). Blood samples were collected at 2 and 6 hours with K2EDTA blood collection tube. The collection tube was then centrifuged at 13,000 rpm for 10 minutes at 4° C. to separate plasma. The plasma was analyzed using the cGMP Direct Biotrak EIA (GE Healthcare Life Sciences, Marlborough, MA). Note that by using allometric scaling at exponent of 0.7 [dose in other species=mice dose/((mouse weight/weight of average other species)^0.7)], the 15 mg/Kg in mice is equivalent to about 7.5 mg/Kg rat dose, about 2.5 mg/Kg dog dose, and 1.5 mg/Kg human dose. For the purpose the present disclosure, the 15 mg/Kg in mice as presented in the relevant data examples, should be understood as equivalent to about 7.5 mg/Kg rat dose, which is equivalent to about 2.5 mg/Kg dog dose, which is equivalent to about 1.5 mg/Kg human dose. Because the mice cGMP response to 15 mg/Kg dose of the newly discovered derivatives (see Table 2) was quite high, it would be prudent to use daily doses that are lower than 15 mg/Kg for mice, 7.5 mg/Kg for rat, 2.5 mg/Kg for dog, and 1.5 mg/Kg for human since any higher dose may result in too much increase in cGMP that can result in too much or even dangerous drop in blood pressure unless formulated in a very slow release delivery system. In fact based on cGMP response it was more preferable to use daily doses that are lower than […], 1.5 mg/Kg for rat, 0.5 mg/Kg for dog, and 0.3 mg/Kg for human. Additionally, the level of blood cGMP is preferably between 1.5 to 3-times of the normal baseline level. The blood or plasma cGMP normal baseline level was about 20-50 pmol/ml but could vary slightly depending on the assay kit used to measure the level.

2 hrs. ANP level [1] | Compound | In vivo blood cGMP minus baseline, 2 hour (potency) [2] [µM] | In vivo blood cGMP minus baseline, 6 hour (receptor depletion) [2] [pmol/mL] | activity / potency compared to ANP, in words (2 hour data in Table 2) [2]
67.24 (6.92)* ng/ml | CC[C@H](C)[C@@H]1NC(=O)[C@H](CCCNC(=N)N)NC(=O)[C@H](CC(=O)O)NC(=O)[C@H](CCSC)NC(=O)[C@H](CCCNC(=N)N)NC(=O)CNC(=O)CNC(=O)[C@H](Cc2ccccc2)NC(=O)[C@@H](NC(=O)[C@H](CO)NC(=O)[C@H](CO)NC(=O)[C@H](CCCNC(=N)N)NC(=O)[C@H](CCCNC(=N)N)NC(=O)[C@H](CC(C)C)NC(=O)[C@@H](N)CO)CSSC[C@@H](C(=O)N[C@@H](CC(N)=O)C(=O)N[C@@H](CO)C(=O)N[C@@H](Cc2ccccc2)C(=O)N[C@@H](CCCNC(=N)N)C(=O)N[C@@H](Cc2ccc(O)cc2)C(=O)O)NC(=O)CNC(=O)[C@H](CC(C)C)NC(=O)CNC(=O)[C@H](CO)NC(=O)[C@H](CCC(N)=O)NC(=O)[C@H](C)NC(=O)CNC1=O [SEQ ID NO. 1] |  |  | 
 | CH3(CH2)20COKKKKGGGSLRRSSCFGGRMDRIGAQSGLGCNSFRY (Docosanoyl-KKKKGGGSLRRSSCFGGRMDRIGAQSGLGCNSFRY; not fully specified (bridges); printed as CH3(CH2)20COKKKKGGGSLRRSSCFGGRMDRIGAQSGLGCNSFRY; cysteine pairing not given here; listed as Homo Sapiens) [SEQ ID NO. 94] | 0.2638 | 255.4 | 
 | CH3(CH2)22COKKKKGGGGLSKGCFGLKLDRIGSMSGLGC ({CH3(CH2)22CO}-KKKKGGGGLSKGCFGLKLDRIGSMSGLGC; not fully specified (bridges); printed as CH3(CH2)22COKKKKGGGGLSKGCFGLKLDRIGSMSGLGC; cysteine pairing not given here; listed as Homo Sapiens) [SEQ ID NO. 122] | 0.25192 | 209.24 | 
 | CH3(CH2)22COKKKKGGGSLRRSSCFGGRMDRIGAQSGLGCNSFRY ({CH3(CH2)22CO}-KKKKGGGSLRRSSCFGGRMDRIGAQSGLGCNSFRY; not fully specified (bridges); printed as CH3(CH2)22COKKKKGGGSLRRSSCFGGRMDRIGAQSGLGCNSFRY; cysteine pairing not given here; listed as Homo Sapiens) [SEQ ID NO. 95] | 0.2608 | 245.6 | 
 | GGGGLSKGCFGLKLDRIGSMSGLGC (listed as Homo Sapiens) [SEQ ID NO. 60] | 0.04998 | 16.85 | no loss activity compared to ANP
 | GGGSLRRSSCFGGRMDRIGAQSGLGCNSFRY (listed as Homo Sapiens) [SEQ ID NO. 4] | 0.04166 | -11.79 | 
 | GGLSKGCFGLKLDRIGSMSGLGC (listed as Homo Sapiens) [SEQ ID NO. 58] | 0.02709 | 5.10 | no loss activity compared to ANP
 | GGSLRRSSCFGGRMDRIGAQSGLGCNSFRY (listed as Homo Sapiens) [SEQ ID NO. 3] | 0.04679 | 0.16 | 
 | GLSKGCFGLKLDRIGSMSGLGC [SEQ ID NO. 57, reference compound] | 0.09375 | 24.55 | 
 | GSLRRSSCFGGRMDRIGAQSGLGCNSFRY (listed as Homo Sapiens) [SEQ ID NO. 2] | 0.04408 | -13.85 | 
 | KGGGSLRRSSCFGGRMDRIGAQSGLGCNSFRY (listed as Homo Sapiens) [SEQ ID NO. 5] | 0.05996 | 44.34 | 
 | KKGGGSLRRSSCFGGRMDRIGAQSGLGCNSFRY (listed as Homo Sapiens) [SEQ ID NO. 6] | 0.0286 | -4.81 | 
 | KKKGGGSLRRSSCFGGRMDRIGAQSGLGCNSFRY (listed as Homo Sapiens) [SEQ ID NO. 7] | 0.0234 | -1.19 | 
 | KKKKGGGSLRRSSCFGGRMDRIGAQSGLGCNSFRY (listed as Homo Sapiens) [SEQ ID NO. 8] | 0.053 | 15.25 | 
